Experimental data reported in patent publication US20120065228A1, “COMPOSITIONS AND METHODS FOR TREATING, CONTROLLING, REDUCING, OR AMELIORATING OCULAR INFLAMMATORY WITH LOWER RISK OF INCREASED INTRAOCULAR PRESSURE” (priority 2007, published 2012).
Several values for one entry are separate records, joined by “and”; a condition that tells them apart may be missing. Identical values can stand only once.

Columns and labels:
[1] = tested on: rabbit eyes; experiment: Ophthalmic observations (slit lamp, McDonald Shadduck) in the rabbit IOP study; assay type: in vivo, New Zealand White rabbits; set-up: key to Cornea Score: 1: Some loss of transparency. Only the epithelium and/or the anterior half of the stoma are involved. The underlying structures are clearly visible although some cloudiness may be readily apparent; key to Conjunctival congestion Score: A flushed, reddish color predominantly confined to the palpebral conjunctiva with some perilimbal injection but primarily confined to the lower and upper parts of the eye from the 4:00 to 7:00 and 11:00 to 1:00 positions; settings: for Conjunctival congestion Score: individual rabbit; for Ophthalmic Observation (Slit-Lamp): individual rabbits; for Ocular finding associated with unilateral topical instillation: four times daily up to 31 days, BOL-303242-X 0.05, 0.25 or 0.5 mg/dose, dexamethasone 0.05 mg/dose
Experimental: On Days 1-31, animals received daily topical doses of the appropriate test article into the right eye. Animals were dosed four times per day, with doses administered 2 hours apart. Doses were administered using a calibrated 50-μL pipette. The eyelids were held close for 10 seconds immediately following dosing. The time of each dose administration was recorded.
Ophthalmic examinations (slit lamp) were performed prior to the first dosing on Days 5, 12, 22, 26, and 33. Ocular findings were scored according to the McDonald Shadduck system and recorded using a standardized data collection sheet.

[2] = tested on: leukocytes (PMN); experiment: Leukocytes (PMN) measurement in aqueous humor, rabbit paracentesis model; assay type: in vivo; settings: second paracentesis; for PMN in aqueous humor: individual eyes
Experimental: (§1) Each rabbit was placed in a restraint device and tagged with the alphanumeric code. The formulations were instilled (50 μl) into the conjunctival sac of both eyes 180, 120, 90 and 30 min before the first paracentesis; then 15, 30, 90 min after the first paracentesis. To perform the first paracentesis the animals were anaesthetized by intravenous injection of 5 mg/kg Zoletil® (Virbac; 2.5 mg/kg tiletamine HCl and 2.5 mg/kg zolazepam HCl) and one drop of local anesthetic (Novesina®, Novartis) was administered to the eye. Anterior chamber paracentesis was performed with a 26 G needle attached to a tuberculin syringe; the needle was introduced into the anterior chamber through the cornea, taking care not to damage the tissues. Two hours after the ® first paracentesis, the animals were sacrificed with 0.4 ml Tanax® (Intervet International B.V.) and the second paracentesis was performed. About 100 μl of aqueous humor were removed at the second paracentesis. Aqueous humor was immediately split in four aliquots and stored at −80° C. until analysis. Then both eyes were enucleated and the iris-ciliary body was carefully excised, placed in polypropylene tubes, and stored at −80° C. until analysis.
For the determination of the number of leukocytes we used a haemocytometer (Improved Neubauer Chamber; Bright-line. Hausser Scientific) and a Polyvar 2 microscope (Reichert-Jung).
(§2) Pupillary diameter, PGE2, protein, PMN, and MPO were expressed as mean±SEM. Statistical analysis was performed using one way ANOVA followed by a Newman-Keuls post hoc test. Clinical score was expressed as % of eyes and the statistical analysis was performed using Kruskal-Wallis followed by a Dunn post hoc test. P<0.05 was considered statistically significant in both cases. Prism 4 software (GraphPad Software, Inc.) was used for the analysis and graphs.

[3] = tested on: rabbit eye; experiment: Pupillary diameter measurement, rabbit paracentesis model; assay type: in vivo; settings: individual eyes; for Pupillary diameter T2: −5 min: 5 min before the first paracentesis; for Pupillary diameter T3: +115 min: 5 min before the second paracentesis; for Pupillary diameter Δ(T3 − T1): +115 min minus −180 min; for Pupillary diameter T1: −180 min: basal
Experimental: as §1
The pupillary diameter of both eyes was measured with a Castroviejo caliper 180 min and 5 min before the first paracentesis and 5 min before the second paracentesis.
as §2

[4] = 1 mg/g BOL-303242-X 4 x daily, treated right eye, Day 22
[5] = 5 mg/g BOL-303242-X 4 x daily, treated right eye, Day 5
[6] = 5 mg/g BOL-303242-X 4 x daily, treated right eye, Day 22
[7] = 5 mg/g BOL-303242-X 4 x daily, treated right eye, Day 22, 26
[8] = 5 mg/g BOL-303242-X 4 x daily, treated right eye, Day 26
[9] = 10 mg/g BOL-303242-X 4 x daily, treated right eye, Day 5, 12
[10] = 10 mg/g BOL-303242-X 4 x daily, treated right eye, Day 12
[11] = 10 mg/g BOL-303242-X 4 x daily, treated right eye, Day 26
[12] = 0.1% topical formulation, listed as BOL
[13] = 0.5% topical formulation, listed as BOL
[14] = 1% topical formulation, listed as BOL
[15] = 0.1% Dexamethasone 4 x daily, treated right eye, Day 5
[16] = 0.1% Dexamethasone 4 x daily, treated right eye, Day 22
[17] = 0.1% topical formulation, listed as Dex

Cc1ccc2c(NCC(O)(CC(C)(C)c3cc(F)cc4c3OCC4)C(F)(F)F)cccc2n1 (stereo not drawn) [BOL-303242-X]
Conjunctival congestion Score [1, 4]: 1 | Ophthalmic Observation (Slit-Lamp) [1, 4]: Conjunctival congestion | Slit-lamp ophthalmic finding ([1]; 1 mg/g suspension, dosed right eye (Group D, No. 3043)): subconjunctival hemorrhage | Conjunctival congestion Score [1, 5]: 1 | Conjunctival congestion Score [1, 6]: 1 | Conjunctival congestion Score [1, 7]: 1 | Conjunctival congestion Score [1, 8]: 1 | Ophthalmic Observation (Slit-Lamp) [1, 5]: Conjunctival congestion | Ophthalmic Observation (Slit-Lamp) [1, 6]: Conjunctival congestion | Ophthalmic Observation (Slit-Lamp) [1, 7]: Conjunctival congestion | Ophthalmic Observation (Slit-Lamp) [1, 8]: Conjunctival congestion | Conjunctival congestion Score [1, 9]: 1 | Conjunctival congestion Score [1, 10]: 1 | Conjunctival congestion Score [1, 11]: 1 | Ophthalmic Observation (Slit-Lamp) ([1]; 10 mg/g BOL-303242-X 4 x daily, treated right eye, Day 5): Surface area of cornea involvement | Ophthalmic Observation (Slit-Lamp) [1, 9]: Conjunctival Congestion | Ophthalmic Observation (Slit-Lamp) [1, 10]: Conjunctival Congestion | Ophthalmic Observation (Slit-Lamp) [1, 11]: Conjunctival Congestion | Surface area of cornea involvement Score ([1]; 10 mg/g BOL-303242-X 4 x daily, treated right eye, rabbit 3083, Day 5): 1 (1-25% area of stromal cloudiness.) | Cornea Score ([1]; 10 mg/g BOL-303242-X 4 x daily, treated right eye, rabbit 3083, Day 5, pinpoint corneal scar): 1^(2) | Slit-lamp ophthalmic finding ([1]; 10 mg/g suspension, dosed right eye (Group B, No. 3083)): pinpoint corneal scar | Ocular finding associated with unilateral topical instillation [1]: sporadic mild conjunctival congestion | PMN in aqueous humor, Mean ([2]; 0.1% topical formulation): 28.333 number/μl | PMN in aqueous humor [2, 12]: 20 number/μl (4×) and 40 number/μl and 50 number/μl | PMN in aqueous humor, Mean ([2]; 0.5% topical formulation): 21.250 number/μl | PMN in aqueous humor [2, 13]: 40 number/μl (2×) and 20 number/μl (3×) and 10 number/μl (3×) | PMN in aqueous humor, Mean ([2]; 1% topical formulation): 28.750 number/μl | PMN in aqueous humor [2, 14]: 30 number/μl (3×) and 20 number/μl (3×) and 40 number/μl (2×) | Pupillary diameter T2: −5 min [3, 12]: 6.5 mm (3×) and 7.0 mm (4×) and 7.5 mm | Pupillary diameter T3: +115 min [3, 12]: 5.0 mm (2×) and 6.0 mm (3×) and 6.5 mm and 5.5 mm (2×) | Pupillary diameter Δ(T3 − T1) [3, 12]: −1.5 mm (4×) and −0.5 mm (2×) and −1.0 mm (2×) | Pupillary diameter T1: −180 min [3, 12]: 6.5 mm (4×) and 7.0 mm (3×) and 7.5 mm | Pupillary diameter T2: −5 min [3, 13]: 8.0 mm (3×) and 7.0 mm (4×) and 7.5 mm | Pupillary diameter T3: +115 min [3, 13]: 6.5 mm (4×) and 6.0 mm (2×) and 7.0 mm (2×) | Pupillary diameter Δ(T3 − T1) [3, 13]: −1.5 mm (2×) and −0.5 mm (2×) and −1.0 mm (4×) | Pupillary diameter T1: −180 min [3, 13]: 8.0 mm (3×) and 7.0 mm (3×) and 7.5 mm (2×) | Pupillary diameter T2: −5 min [3, 14]: 6.0 mm (2×) and 6.5 mm (4×) and 7.0 mm (2×) | Pupillary diameter T3: +115 min [3, 14]: 5.5 mm (2×) and 5.0 mm (4×) and 6.0 mm (2×) | Pupillary diameter Δ(T3 − T1) [3, 14]: −0.5 mm (3×) and −1.5 mm (2×) and −1.0 mm (3×) | Pupillary diameter T1: −180 min [3, 14]: 6.0 mm (3×) and 6.5 mm (5×)

C[C@@H]1C[C@H]2[C@@H]3CCC4=CC(=O)C=C[C@]4(C)[C@@]3(F)[C@@H](O)C[C@]2(C)[C@@]1(O)C(=O)CO [dexamethasone, reference compound]
Conjunctival congestion Score [1, 15]: 1 | Conjunctival congestion Score [1, 16]: 1 | Ophthalmic Observation (Slit-Lamp) [1, 15]: Conjunctival Congestion | Ophthalmic Observation (Slit-Lamp) [1, 16]: Conjunctival Congestion | Ocular finding associated with unilateral topical instillation [1]: sporadic mild conjunctival congestion | PMN in aqueous humor, Mean ([2]; 0.1% topical formulation): 30.000 number/μl | PMN in aqueous humor [2, 17]: 20 number/μl (3×) and 50 number/μl and 40 number/μl and 30 number/μl | Pupillary diameter T2: −5 min [3, 17]: 5.5 mm and 6.5 mm (3×) and 6.0 mm (2×) and 7.0 mm and 7.5 mm | Pupillary diameter T3: +115 min [3, 17]: 5.5 mm (3×) and 6.0 mm (2×) and 4.5 mm and 5.0 mm and 6.5 mm | Pupillary diameter Δ(T3 − T1) [3, 17]: −0.5 mm (3×) and −1.5 mm (2×) and 0.5 mm and 0.0 mm and −2.0 mm | Pupillary diameter T1: −180 min [3, 17]: 6.0 mm and 7.0 mm (2×) and 5.5 mm (2×) and 6.5 mm (3×)
